# Several values for one entry are separate records, joined by “and”; a condition that tells them apart may be missing. Identical values can stand only once.
# System: endotoxin-induced lung injury
# Assay: porcine model of LPS-induced acute lung injury: haemodynamics, ventilation/mechanics, blood gases, P/F, chemistry, temperature, survival
# Format: in vivo, pig
# Set-up: AF baseline / AF end / Ven. sat end: unit not given here
# Method: The animals were bred for purpose at the Forslunda Agricultural School in Umeå, Sweden. The pigs were pairwise kept in 8 m^2 pens before start of experiments and were fed twice daily with a commercially available pig diet without antimicrobials, and with free access to water. Photoperiods were 12:12 h light:dark. Room temperature in their stall was 20 °C ± 1 °C.
# After overnight fasting, but with free access to water and hay, animals were pre-medicated with ketamine (Ketaminol vet® 100 mg/mL; Intervet International B.V, Boxmeer, Netherlands), xylazine (Rompun® vet 20 mg/mL; Bayer Animal Health, Copenhagen, Denmark) and atropine (Atropin Mylan 0.5 mg/mL; Mylan AB, Stockholm, Sweden) by intramuscular injection before an auricular vein was cannulated. Anesthesia was induced with ketamine and midazolam (Midazolam Hameln 5 mg/mL, Hameln Pharmaceuticals, Hameln, Germany) and maintained with ketamine, midazolam, xylazine and fentanyl (Fentanyl 0.05 mg/mL, B. Braun Medical AB, Danderyd, Sweden). The animals were orotracheally intubated and ventilated with tidal volume 8–9 mL/kg, PEEP 8 cmH2O, and a respiratory rate set to achieve an end-tidal carbon dioxide of 5–5.5 kPa.
# One animal served as a pharmacokinetic pilot, with arterial and venous catheters placed in a cut-down in the neck. The remaining 21 animals were used for the randomized study (Figure 1). After intubation and start of mechanical ventilation, a second auricular vein cannula was placed and infusion of either AEPU or placebo according to randomization was started. After 2 h of infusion of AEPU or placebo, an infusion of LPS was started. A bolus of 0.1 mg/kg was administered during 30 min after which the infusion rate was adjusted to 0.01 mg/kg/h. During the time between start of AEPU or placebo and LPS infusion, neck dissection was performed, exposing the v jugularis externa and carotid artery. A pulmonary artery introducer and an arterial cannula were placed in vein and artery respectively, and a pulmonary artery catheter introduced through the introducer and the tip placed in the correct position in the pulmonary artery placement guided by continuous invasive pressure monitoring or, when difficult, assisted by fluoroscopy. All surgical procedures were performed under sterile conditions.
# AEPU was synthesized according to Kim et al. ([Kim et al., 2007]), delivered in 60 mg vials and dissolved in 30 mL pure ethanol as a co-solvent, of which either 20 mL was added to 980 mL of sodium chloride 9 mg/mL or 8 mL–392 mL sodium chloride, creating a solution of 0.04 mg/mL AEPU and 2% ethanol. The placebo infusion was prepared by adding either 20 mL of pure ethanol to 980 mL of sodium chloride 9 mg/mL or 8 mL of pure ethanol to 392 mL sodium chloride, creating a 2% ethanol solution. Each animal received an infusion of either 0.1 mg/kg/h AEPU or the corresponding volume of placebo solution.
# A total of 200 mg of prefabricated lipopolysaccharides (LPS, Escherichia coli serotype 0,111:B4, Sigma-Aldrich (Product no L4130), St. Louis, MO, United States of America) was dissolved in 40 mL of sterile water, carefully mixed and filtered, creating a solution of 5 mg/mL. This preparation was stored frozen (−20 °C) in 1 mL partitions. For each animal, 2 mL of the thawed solution was mixed and diluted in 18 mL of sodium chloride, finally creating a 0.5 mg/mL LPS solution for infusion.
# All animals were monitored with pulse oximetry, heart rate, ECG, systemic arterial blood pressure (ABP), pulmonary arterial pressure (PAP), central venous pressure (CVP) temperature, tidal volumes, respiratory rate and end tidal carbon dioxide. At baseline, and at 3 h, 6 h and at the end of the experiment, pulmonary capillary wedge pressure (PCWP) was measured together with arterial and venous blood gas analyses, as well as cardiac output calculations. […]
# [1] = individual animals, 3 h, listed as sEH-i 950
# [2] = individual animals, 6 h, listed as sEH-i 950
# [3] = individual animals, end, listed as sEH-i 950
# [4] = last available measurement, AEPU group
structure (smiles),measurement,setting,value
CCOCCOCCOCCCCCNC(=O)NC12CC3CC(CC(C3)C1)C2 [Compound 950],PaO2 3 h,[1],22.1 kPa and 20.1 kPa and 17 kPa and 22.7 kPa and 19.3 kPa and 16.7 kPa and 9 kPa and 8.1 kPa and 7.3 kPa and 14.7 kPa
same,SBP 3 h,[1],124 mmHg and 122 mmHg and 103 mmHg and 102 mmHg and 110 mmHg and 101 mmHg and 162 mmHg and 123 mmHg and 78 mmHg and 116 mmHg
same,SPAP 3 h,[1],82 mmHg and 46 mmHg and 45 mmHg and 53 mmHg and 66 mmHg and 58 mmHg
same,Ven. sat 3 h,[1],69 and 79 and 74 and 62 and 58 and 49 and 34
same,CO 6 h,[2],3.2 L/min and 3.3 L/min and 3.1 L/min and 1.7 L/min and 2.4 L/min
same,CVP 6 h,[2],14 mmHg and 16 mmHg and 22 mmHg and 15 mmHg and 26 mmHg and 25 mmHg
same,HR 6 h,[2],170 and 173 and 175 and 138 and 120 and 226 and 116 and 162
same,MAP 6 h,[2],82 mmHg and 60 mmHg and 94 mmHg and 91 mmHg and 66 mmHg and 55 mmHg
same,MPAP 6 h,[2],35 mmHg and 44 mmHg and 42 mmHg and 24 mmHg and 49 mmHg and 41 mmHg and 43 mmHg
same,PCWP 6 h,[2],19 mmHg and 17 mmHg and 18 mmHg and 21 mmHg
same,PaCO2 6 h,[2],5.1 kPa and 5.9 kPa and 6.2 kPa and 5.3 kPa and 5.5 kPa and 4.4 kPa and 6.3 kPa and 8 kPa and 9.4 kPa
same,PaO2 6 h,[2],19.6 kPa and 12.3 kPa and 11.8 kPa and 18.6 kPa and 18.5 kPa and 14.7 kPa and 8.7 kPa and 9.4 kPa and 6.8 kPa and 7.9 kPa
same,SBP 6 h,[2],104 mmHg and 106 mmHg and 119 mmHg and 88 mmHg and 110 mmHg and 100 mmHg and 95 mmHg
same,SPAP 6 h,[2],42 mmHg and 47 mmHg and 48 mmHg and 36 mmHg and 57 mmHg and 44 mmHg and 52 mmHg and 53 mmHg
same,Ven. sat 6 h,[2],57 and 59 and 45 and 73 and 68 and 44 and 46 and 7 and 10
same,MPAP (vid max SPAP),"individual animals, at max SPAP, listed as sEH-i 950",60 mmHg and 52 mmHg and 62 mmHg and 57 mmHg and 84 mmHg and 66 mmHg and 47 mmHg
same,CO end,[3],3.9 L/min and 2.8 L/min and 3.6 L/min and 5.2 L/min and 0 L/min and 1.4 L/min
same,CVP end,[3],17 mmHg and 15 mmHg and 13 mmHg and 20 mmHg
same,HR end,[3],163 and 147 and 150 and 130 and 165 and 160 (0) and 135
same,MAP end,[3],55 mmHg and 56 mmHg and 105 mmHg and 64 mmHg and 67 mmHg and 42 mmHg and 43 mmHg
same,MPAP end,[3],30 mmHg and 50 mmHg and 33 mmHg and 24 mmHg and 40 mmHg and 43 mmHg and 48 mmHg
same,PCWP end,[3],17 mmHg and 22 mmHg and 16 mmHg and 15 mmHg and 25 mmHg
same,PaCO2 end,[3],5.3 kPa and 6.1 kPa and 4.8 kPa and 4.4 kPa and 7.3 kPa and 6.4 kPa
same,PaO2 end,[3],19.9 kPa and 13.4 kPa and 12 kPa and 19.5 kPa and 12.2 kPa and 4.4 kPa and 8.7 kPa
same,SBP end,[3],102 mmHg and 103 mmHg and 116 mmHg and 97 mmHg and 92 mmHg and 66 mmHg and 70 mmHg
same,SPAP end,[3],38 mmHg and 57 mmHg and 43 mmHg and 29 mmHg and 47 mmHg and 49 mmHg and 54 mmHg
same,Ven. sat end,[3],69 and 54 and 58 and 56 and 70 and 19
same,SPAP max,"individual animals, maximum, listed as sEH-i 950",73 mmHg and 71 mmHg and 91 mmHg and 70 mmHg and 72 mmHg and 84 mmHg and 80 mmHg and 75 mmHg
same,Bilirubin,[4],11.1 (8.6–18.8) μmol/L
same,CVP,[4],16 (15–17) mmHg
same,Compliance,[4],7.9 (7.3–9.7) ml/cmH2O
same,Creatinine,[4],133 (102–152) μmol/L
same,Hemoglobin,[4],116 (107–128) g/L
same,MAP,[4],66 (55–97) mmHg
same,MPAP,[4],46 (35–50) mmHg
same,P/F,[4],22 (11–42) kPa
same,PCWP,[4],18 (16–21) mmHg
same,PIP,[4],33 (29–37) cmH20
same,PVR,[4],643 (390–1057) dynes*sec/cm^5
same,PaCO2,[4],5.8 (4.9–7.1) kPa
same,SVR,[4],1314 (1089–2375) dynes*sec/cm^5
same,SvO2,[4],55 (25–66) %
same,Temperature,[4],38.5 (38.0–40.1) °C
same,pH,[4],7.16 (7.07–7.26)
same,Mortalitet: Tidpunkt,"time of death or termination, individual animals, listed as sEH-i 950",6 h and 9 h and 8 h

# Source: paper PMC12457078, “Inhibition of soluble epoxide hydrolase in endotoxin induced pig lung injury” (Frontiers in Pharmacology, 2025)
